The values that follow are results of earlier work, collected in patent publication EP4659595A1, “NICOTINE-POLYMER COMPLEX COMPRISING MULTIPLE NICOTINE FORMS” (Nicoventures Trading Limited, priority 2024, dated 2025).

As usually defined, the logP is a log measure of how a compound divides between an organic and an aqueous phase.

For series [1] the following is noted: partition coefficient between octanol and water; source of values not stated.
The conditions of series [2]: when isolated; converts via isomerization into trans-bixin (β-bixin).
The conditions of series [3]: fats, alcohols, water.

ethyl benzoic acid: the logP in series [1] was 2.9.

Turning to `CC(C)[C@@H]1CC[C@@H](C)C[C@H]1OC(=O)CCC(=O)O` [monomenthyl succinate], the logP in series [1] was 3.

For the compound tocopherol succinate, the logP in series [1] is on record as 10.2. `COC(=O)/C=C/C(C)=C\C=C\C(C)=C\C=C\C=C(C)\C=C\C=C(C)\C=C\C(=O)O` [bixin, (2E,4E,6E,8E,10E,12E,14E,16Z,18E)-20-methoxy-4,8,13,17-tetramethyl-20-oxoicosa-2,4,6,8,10,12,14,16,18-nonaenoic acid]: the chemical stability entry in series [2] is given as “chemically unstable when isolated”. Also, the solubility result in series [3] was “soluble in fats and alcohols but insoluble in water”.

As to `CC(/C=C/C=C(C)/C=C/C(=O)O)=C\C=C\C=C(C)\C=C\C=C(C)\C=C\C(=O)O` (stereo in doubt) [norbixin, (2E,4E,6E,8E,10E,12E,14E,16E,18E)-4,8,13,17-tetramethylicosa-2,4,6,8,10,12,14,16,18-nonaenedioic acid], the solubility result in series [3] was “water soluble”. For isopropyl benzoic acid, the lipophilicity (logP) in series [1] is 3.5.
